# Data reported in patent publication US20240246955A1, “TROPOMYOSIN RECEPTOR KINASE (TRK) DEGRADATION COMPOUNDS AND METHODS OF USE” (CULLGEN (SHANGHAI), INC., priority 2021, published 2024).
# Key:
# Format in all cases: cell-based
# KM12 cells = test: KM12 cell viability assay (CellTiter-Glo); conditions: Homo sapiens, 72 h; KM12 cells, 3 days, CellTiter-Glo
# Method: The kinase activity of TRK is known to play important roles in tumors expressing TRK-fusion proteins, as TRK kinase inhibitors compromise cell proliferation, survival, and induce marked clinical responses (Amatu et al., 2016; Drilon et al., 2018; Drilon et al., 2017; Khotskaya et al., 2017). KM12 cells seeded in 96-well plates were treated with heterobifunctional compounds following a 11-point 3-fold serial dilution. Three days after treatment, cell viability was determined using the CellTiter-Glo kit, and normalized to the mean values of 3 replicates of untreated cells. Dose-dependent response was analyzed following the least-squares non-linear regression method using the GraphPad Prism software. Each data point in the figure represents the mean values of three technical replicates ±standard deviation.
# KM12 cells seeded in 96-well plates were treated with heterobifunctional compounds following a 11-point 3-fold serial dilution for 3 days.
# (§1) KM12, TRKA G595R mutated KM12, HEL, and other cells were cultured at 37° C. with 5% CO2 in DMEM or RPMI 1640 Medium supplemented with 10% fetal bovine serum. Cells were authenticated using the short tandem repeat (STR) assays. Mycoplasma test results were negative.
# (§2) Cells were seeded at a density of 5000 cells per well in 96-well assay plates and treated with test compounds following a 11-point 3-fold serial dilution. Three days later, cell viability was determined using the CellTiter-Glo assay kit (Promega) according to the manufacturer's instructions. The dose-response curves were determined and IC50 values were calculated using the GraphPad Prism software following a nonlinear regression (least squares fit) method.
# [1] = test system: TRKA G595R mutated KM12 cells; test: Cell viability assay in TRKA G595R mutated KM12 cells (CellTiter-Glo); conditions: Homo sapiens, 72 h, 3 days
# Method: as §1, §2
# The activities of selected compounds on cell viability (IC50 values) and TMP3-TRKA degradation (percentage degradation at 10 nM) in KM12 cells or KM12-G595R mutated KM12 cells (KM12-G595R) are listed in Table 2.
# TPM3-TRKA fusion protein = molecular target: T1, TPM3-TRKA fusion protein (Homo sapiens, UniProt P04629); test: TPM3-TRKA degradation in KM12 cells (Western blot); conditions: 16 hours, TRK protein, immunoblot; for inhibition at 0.01 µM: 10 nM; for inhibition at 0.1 µM: 100 nM
# T1 construct: TPM3 (N-terminal part of tropomyosin alpha-3, natural fusion partner); endogenous in cells; host or cells: KM12 colon cancer cells; the other entry of the earlier key: TPM3 (P06753, Tropomyosin alpha-3 chain)
# T1 sequence (P04629 with tags, fused parts or gaps): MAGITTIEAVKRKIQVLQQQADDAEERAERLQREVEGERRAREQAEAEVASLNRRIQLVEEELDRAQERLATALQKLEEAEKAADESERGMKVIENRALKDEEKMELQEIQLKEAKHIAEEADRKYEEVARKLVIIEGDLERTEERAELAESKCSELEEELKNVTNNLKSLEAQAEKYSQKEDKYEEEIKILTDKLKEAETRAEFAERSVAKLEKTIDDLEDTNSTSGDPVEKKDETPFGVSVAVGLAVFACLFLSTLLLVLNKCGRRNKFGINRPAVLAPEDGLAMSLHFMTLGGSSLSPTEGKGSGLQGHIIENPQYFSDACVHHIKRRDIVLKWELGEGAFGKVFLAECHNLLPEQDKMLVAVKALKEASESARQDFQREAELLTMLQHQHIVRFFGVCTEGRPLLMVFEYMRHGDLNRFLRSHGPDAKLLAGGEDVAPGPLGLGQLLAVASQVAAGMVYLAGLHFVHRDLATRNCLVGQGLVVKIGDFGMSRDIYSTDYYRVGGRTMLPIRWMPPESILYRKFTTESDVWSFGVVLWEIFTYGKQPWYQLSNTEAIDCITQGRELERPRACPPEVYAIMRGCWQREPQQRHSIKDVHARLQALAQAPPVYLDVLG
# Method: Specific exemplary heterobifunctional compounds were characterized in KM12 cells. KM12 cells that express TPM3-TRKA fusion protein were treated with 10 nM or 100 nM heterobifunctional compounds disclosed herein or their corresponding warheads/inhibitors for 16 hours. Cells were collected, lysed and subject to immunoblotting using an antibody specific to TRK proteins.
# KM12 cells were treated with heterobifunctional compounds at 10 nM or 100 nM for 16 hours.
# Cultured cells were washed with cold PBS once and lysed in cold RIPA buffer supplemented with protease inhibitors and phosphatase inhibitors (Beyotime Biotechnology). The solutions were then incubated at 4° C. for 30 minutes with gentle agitation to fully lyse cells. Cell lysates were centrifuged at 13,000 rpm for 10 minutes at 4° C. and pellets were discarded. Total protein concentrations in the lysates were determined by BCA assays (Beyotime Biotechnology). Cell lysates were mixed with Laemmli loading buffer to 1× and heated at 99° C. for 5 min. Proteins were resolved on SDS-PAGE and visualized by chemiluminescence. Images were taken by a ChemiDoc MP Imaging system (Bio-Rad). Protein bands were quantitated using the software provided by Bio-Rad.
# The percentage of TRK protein degradation of each compound at 10 nM and 100 nM was determined in KM12 cells as described in Methods. The percentage of degradation of each compound was indicated in the following categories: N/A: data not available; −: no degradation; +: degradation less than 50%; ++: degradation equal or greater than 50% but less than […]; +++: degradation equal or greater than 80%.
SMILES,IC50 (KM12 cells),IC50 [1],inhibition at 0.01 µM (TPM3-TRKA fusion protein),inhibition at 0.1 µM (TPM3-TRKA fusion protein)
"COCCN1C[C@@H](NC(=O)Nc2c(C)c(-c3cnc(N4CCN(C(=O)COc5ccc6c(c5)C(=O)N(C5CCC(=O)NC5=O)C6=O)CC4)nc3)nn2-c2ccccc2)[C@H](c2cccc(F)c2)C1 (stereo partly drawn) [CPD-023, 1-(3-(2-(4-(2-((2-(2,6-dioxopiperidin-3-yl)-1,3-dioxoisoindolin-5-yl)oxy)acetyl)piperazin-1-yl)pyrimidin-5-yl)-4-methyl-1-phenyl-1H-pyrazol-5-yl)-3-((3S,4R)-4-(3-fluorophenyl)-1-(2-methoxyethyl)pyrrolidin-3-yl)urea]",6.46 nM,44 nM,> 80%,> 80%
"COCCN1C[C@@H](NC(=O)Nc2c(C)c(-c3cnc(N4CCN(C(=O)COc5cccc6c5C(=O)N(C5CCC(=O)NC5=O)C6=O)CC4)nc3)nn2-c2ccccc2)[C@H](c2cccc(F)c2)C1 (stereo partly drawn) [CPD-024, 1-(3-(2-(4-(2-((2-(2,6-dioxopiperidin-3-yl)-1,3-dioxoisoindolin-4-yl)oxy)acetyl)piperazin-1-yl)pyrimidin-5-yl)-4-methyl-1-phenyl-1H-pyrazol-5-yl)-3-((3S,4R)-4-(3-fluorophenyl)-1-(2-methoxyethyl)pyrrolidin-3-yl)urea]",86.9 nM,314 nM,< 50%,50 to 800%
"COCCN1C[C@@H](NC(=O)Nc2c(C)c(-c3cnc(N4CCN(C(=O)CCc5cccc6c5C(=O)N(C5CCC(=O)NC5=O)C6=O)CC4)nc3)nn2-c2ccccc2)[C@H](c2cccc(F)c2)C1 (stereo partly drawn) [CPD-025, 1-(3-(2-(4-(3-(2-(2,6-dioxopiperidin-3-yl)-1,3-dioxoisoindolin-4-yl)propanoyl)piperazin-1-yl)pyrimidin-5-yl)-4-methyl-1-phenyl-1H-pyrazol-5-yl)-3-((3S,4R)-4-(3-fluorophenyl)-1-(2-methoxyethyl)pyrrolidin-3-yl)urea]",30 nM,158 nM,< 50%,50 to 800%
"COCCN1C[C@@H](NC(=O)Nc2c(C)c(-c3cnc(N4CCN(C(=O)CCc5ccc6c(c5)C(=O)N(C5CCC(=O)NC5=O)C6=O)CC4)nc3)nn2-c2ccccc2)[C@H](c2cccc(F)c2)C1 (stereo partly drawn) [CPD-026, 1-(3-(2-(4-(3-(2-(2,6-dioxopiperidin-3-yl)-1,3-dioxoisoindolin-5-yl)propanoyl)piperazin-1-yl)pyrimidin-5-yl)-4-methyl-1-phenyl-1H-pyrazol-5-yl)-3-((3S,4R)-4-(3-fluorophenyl)-1-(2-methoxyethyl)pyrrolidin-3-yl)urea]",42.1 nM,301 nM,> 80%,> 80%
"COCCN1C[C@@H](NC(=O)Nc2c(C)c(-c3cnc(N4CCN(CCOc5cccc6c5C(=O)N(C5CCC(=O)NC5=O)C6=O)CC4)nc3)nn2-c2ccccc2)[C@H](c2cccc(F)c2)C1 (stereo partly drawn) [CPD-027, 1-(3-(2-(4-(2-((2-(2,6-dioxopiperidin-3-yl)-1,3-dioxoisoindolin-4-yl)oxy)ethyl)piperazin-1-yl)pyrimidin-5-yl)-4-methyl-1-phenyl-1H-pyrazol-5-yl)-3-((3S,4R)-4-(3-fluorophenyl)-1-(2-methoxyethyl)pyrrolidin-3-yl)urea]",3.13 nM,4.47 nM,50 to 800%,50 to 800%
"COCCN1C[C@@H](NC(=O)Nc2c(C)c(-c3cnc(N4CCN(CCOc5ccc6c(c5)C(=O)N(C5CCC(=O)NC5=O)C6=O)CC4)nc3)nn2-c2ccccc2)[C@H](c2cccc(F)c2)C1 (stereo partly drawn) [CPD-028, 1-(3-(2-(4-(2-((2-(2,6-dioxopiperidin-3-yl)-1,3-dioxoisoindolin-5-yl)oxy)ethyl)piperazin-1-yl)pyrimidin-5-yl)-4-methyl-1-phenyl-1H-pyrazol-5-yl)-3-((3S,4R)-4-(3-fluorophenyl)-1-(2-methoxyethyl)pyrrolidin-3-yl)urea]",4.1 nM,30.4 nM,> 80%,50 to 800%
"COCCN1C[C@@H](NC(=O)Nc2c(C)c(-c3cnc(N4CCN(CCCc5cccc6c5C(=O)N(C5CCC(=O)NC5=O)C6=O)CC4)nc3)nn2-c2ccccc2)[C@H](c2cccc(F)c2)C1 (stereo partly drawn) [CPD-029, 1-(3-(2-(4-(3-(2-(2,6-dioxopiperidin-3-yl)-1,3-dioxoisoindolin-4-yl)propyl)piperazin-1-yl)pyrimidin-5-yl)-4-methyl-1-phenyl-1H-pyrazol-5-yl)-3-((3S,4R)-4-(3-fluorophenyl)-1-(2-methoxyethyl)pyrrolidin-3-yl)urea]",13.4 nM,277 nM,< 50%,50 to 800%
"COCCN1C[C@@H](NC(=O)Nc2c(C)c(-c3cnc(N4CCN(CCNc5cccc6c5C(=O)N(C5CCC(=O)NC5=O)C6=O)CC4)nc3)nn2-c2ccccc2)[C@H](c2cccc(F)c2)C1 (stereo partly drawn) [CPD-030, 1-(3-(2-(4-(2-((2-(2,6-dioxopiperidin-3-yl)-1,3-dioxoisoindolin-4-yl)amino)ethyl)piperazin-1-yl)pyrimidin-5-yl)-4-methyl-1-phenyl-1H-pyrazol-5-yl)-3-((3S,4R)-4-(3-fluorophenyl)-1-(2-methoxyethyl)pyrrolidin-3-yl)urea]",1.09 nM,5.13 nM,50 to 800%,50 to 800%
"COCCN1C[C@@H](NC(=O)Nc2c(C)c(-c3cnc(N4CCN(CCCc5ccc6c(c5)C(=O)N(C5CCC(=O)NC5=O)C6=O)CC4)nc3)nn2-c2ccccc2)[C@H](c2cccc(F)c2)C1 (stereo partly drawn) [CPD-032, 1-(3-(2-(4-(3-(2-(2,6-dioxopiperidin-3-yl)-1,3-dioxoisoindolin-5-yl)propyl)piperazin-1-yl)pyrimidin-5-yl)-4-methyl-1-phenyl-1H-pyrazol-5-yl)-3-((3S,4R)-4-(3-fluorophenyl)-1-(2-methoxyethyl)pyrrolidin-3-yl)urea]",13.7 nM,18.2 nM,> 80%,> 80%
"COCCN1C[C@@H](NC(=O)Nc2c(C)c(-c3cnc(N4CCN(CCc5ccc6c(c5)C(=O)N(C5CCC(=O)NC5=O)C6=O)CC4)nc3)nn2-c2ccccc2)[C@H](c2cccc(F)c2)C1 (stereo partly drawn) [CPD-033, 1-(3-(2-(4-(2-(2-(2,6-dioxopiperidin-3-yl)-1,3-dioxoisoindolin-5-yl)ethyl)piperazin-1-yl)pyrimidin-5-yl)-4-methyl-1-phenyl-1H-pyrazol-5-yl)-3-((3S,4R)-4-(3-fluorophenyl)-1-(2-methoxyethyl)pyrrolidin-3-yl)urea]",14.4 nM,94.6 nM,50 to 800%,50 to 800%
